From PubChem BioAssay AID1902 (Broad Institute, 2009)
Activity calls are given as the source filed them.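 How the source made its calls: active means EC50 no more than a set limit of log units above the highest dose; inactive means the rest.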

Molecular target: S. pyogenes SKKanGAS, kanamycin survival, BacTiterGlo, 6 h
Test: SKKanGAS survival reduction under kanamycin, dose response, streptokinase promoter inhibitor project, SKKanGAS strain, luminescence, dose confirmation (AID 1902);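 further: lower survival reflects blocked streptokinase promoter driving kanamycin resistance gene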

CC(OC(=O)Cc1n[nH]c(=O)c2ccccc12)C(=O)Nc1ccc(Cl)cn1 (stereo not given)
EC50: 14.7 µM

COc1cccc(-c2cc(C(F)(F)F)nc(N3CCCCC3)n2)c1
EC50: 4.86 µM

CC(=O)NNC(=S)NC(=O)C(c1ccccc1)c1ccccc1
EC50: 0.853 µM

O=C(CN1c2ccccc2Sc2ccccc21)NNC(=O)Nc1cccc(Cl)c1
EC50: 4.97 µM

C/C(=N\NC(=O)c1ccc(Cl)c(Cl)c1)c1ccccn1
EC50: 0.063 µM

COC(=O)c1cc(-c2ccc(Br)cc2)c2c(=O)[nH]c(=O)n(C)c2n1
EC50: 1.22 µM

CC(C)(C)OC(=O)[C@H](Cc1ccccc1)NC(=O)c1[nH]cnc1C(=O)Nc1ccc(Cl)cc1
EC50: 3.52 µM

Cc1cccc(CC(Cc2nc3ccccc3[nH]2)c2nc3ccccc3[nH]2)c1 (stereo not given)
EC50: 9.88 µM

CCCCCCn1c(=O)c(C(=O)Nc2c(C)n(C)n(-c3ccccc3)c2=O)c(O)c2ccccc21
EC50: 2.59 µM

O=C1NC[C@@H](Cc2cccc3ccccc23)N(CCCCC2CCCCC2)C1=O
EC50: 3.93 µM

Oc1ccc(/C=N/Nc2ccc3ccccc3c2)c(O)c1
EC50: 7.53 µM

O=C(N/N=C/c1cc(Br)ccc1O)c1ccncc1
EC50: 1.15 µM

Oc1ccc(COCc2ccccc2)c2cccnc12
EC50: 1.85 µM

Oc1ccccc1C1CCCCC1c1ccccc1 (stereo not given)
EC50: 3.9 µM

COc1cnc(-c2ccccn2)nc1Sc1ccc(Cl)cc1
EC50: 4.96 µM

Cc1ccc(NC(=S)c2nc3ccccc3[nH]2)c(C)c1
EC50: 1.74 µM

CCCCSc1nc(C)cc(SCC(=O)N/N=C/c2cccc(OC)c2O)n1
EC50: 2.14 µM

COc1cccc(NP(=O)(Oc2ccc(Cl)cc2)Oc2ccc(Cl)cc2)c1
EC50: 3.22 µM

Cc1cc(S(=O)(=O)NCCC2=CCCCC2)ccc1Br
EC50: 5.43 µM

C[n+]1c(-c2ccccc2)c2cc(N)ccc2c2ccc(N)cc21
EC50: 1.54 µM

CC(C)(C)c1ccc(OCC(O)CS(=O)(=O)c2ccccn2)cc1 (stereo not given)
EC50: > 15 µM (inactive)

Cc1ccnc(NC(c2ccsc2)c2ccc3ccc(C)nc3c2O)c1 (stereo not given)
EC50: 11.7 µM

O=C(O)CN1C(=O)/C(=C\c2ccccc2OCc2ccc(Cl)cc2Cl)SC1=S
EC50: 2.73 µM

O=c1c2cn[nH]c2nc(SCc2c(F)cccc2F)n1-c1ccc(Cl)cc1
EC50: 11.1 µM

CCc1cccc2sc(N3CCN(C(=O)c4ccc([N+](=O)[O-])o4)CC3)nc12
EC50: 4.73 µM

CC1CCCCC1NC(=O)CCn1ccc2cc(S(=O)(=O)N3CCCC3)ccc21 (stereo not given)
EC50: > 15 µM (inactive)

O=c1cc2oc3cc(O)c(O)cc3c(-c3ccccc3[N+](=O)[O-])c-2cc1O
EC50: 9.36 µM

Cc1n[nH]c(C)c1CCOc1ccc(C(C)C)cc1
EC50: 11.2 µM

COc1cc(C(=O)NNC(=S)NC(=O)c2ccc(F)cc2)cc(OC)c1OC
EC50: 0.989 µM

CC1CCCN(S(=O)(=O)c2ccc(C(=O)Nc3nnc(C4CC4)o3)cc2)C1 (stereo not given)
EC50: 3.3 µM

O=C(O)C(c1ccccc1)N1C(=O)/C(=C\c2ccc(-c3ccc(Br)cc3)o2)SC1=S (stereo not given)
EC50: 1.27 µM

COc1cc(/C=C/C(=O)OCC(=O)c2c(N)n(C)c(=O)n(C)c2=O)ccc1OCC#N
EC50: 5.45 µM

Cc1ccccc1Oc1nc(-c2ccccn2)nc2ccccc12
EC50: 4.19 µM

O=C(c1cccs1)N1CCC(c2nc3c(nnn3Cc3ccccc3Cl)c(=O)[nH]2)CC1
EC50: 7.09 µM

COC(=O)c1c(NC(=O)c2ccc([N+](=O)[O-])o2)sc2c1CCN(C(C)C)C2
EC50: 4 µM

N#CC1=C(c2ccccc2)/C(=C/c2ccccc2)OC1=O
EC50: 9.97 µM

c1ccc(-c2cc3c(NCC4COc5ccccc5O4)ncnc3s2)cc1 (stereo not given)
EC50: 2.98 µM

COc1cccc(N/N=C/c2cccc(Br)c2O)c1
EC50: 15.6 µM

COc1ccc(CC(=O)NC(=S)NNC(=O)COc2c(C)cccc2C)cc1
EC50: 0.134 µM

COc1ccc(/C=C/c2ccc3cccc(O)c3n2)c(OC)c1OC
EC50: 3.27 µM

Cc1c(C(=O)NNC(=S)NCc2ccc(Cl)cc2)oc2ccccc12
EC50: 2.17 µM

COc1ccc(/C=c2\s/c(=C/C(=O)c3ccc(C)cc3)[nH]c2=O)cc1OC
EC50: 9.28 µM

CCOC(=O)C1CCN(C(=O)c2ccc3c(=O)n4nc(Nc5cc(C)ccc5C)sc4nc3c2)CC1
EC50: 8.2 µM

C/C(=N\Nc1cc(N2CCCCC2)nc(C)n1)c1ccc(Br)cc1
EC50: 4.46 µM

Cc1[nH]n(-c2ccccc2)c(=O)c1/C=N\NC(=O)C1COc2ccccc2O1 (stereo not given)
EC50: 1.37 µM

CCCC(=O)NC(c1ccc2c(c1)OCO2)c1cc(Cl)c2cccnc2c1O (stereo not given)
EC50: 1.17 µM

CCOc1ccc(NC(=O)CN(C)C(=O)C2CC(=O)N(c3ccc4c(c3)OCCO4)C2)cc1OCC (stereo not given)
EC50: > 15 µM (inactive)

Cc1csc(NC(=O)c2c(O)c3c(n(CC(C)C)c2=O)CCCC3)n1
EC50: 10.9 µM

CC(C)Nc1nc(NC(C)C)nc(N(C)N)n1
EC50: 3.07 µM

CC(C(=O)NC1C(=O)N2C(C(=O)O)=C(CSc3nnnn3C)CSC12)n1cc(Cl)cn1 (stereo not given)
EC50: 0.078 µM

O=C(Nc1nnc(-c2ccccc2)o1)c1ccc(Cl)cc1
EC50: 0.254 µM

CCOC(=O)c1cnn(-c2nc(-c3ccccc3)cs2)c1C(F)(F)F
EC50: 5.29 µM

O=C(Nc1ccc(F)c(Cl)c1)Nc1csc2ccccc12
EC50: 2.79 µM

CN1CCN(c2c(F)cc3c(=O)c(C(=O)O)cn4c3c2OCN4C)CC1
EC50: 3.29 µM

Cc1ccc(NC(=S)NNC(=S)Nc2cccc(C(F)(F)F)c2)cc1
EC50: 2.04 µM

CCC(=O)Nc1nc2ccccc2n1Cc1ccccc1Cl
EC50: 8.22 µM

CCn1cc(C(=O)O)c(=O)c2cc(F)c(N3CCN(C(=S)NC(=O)c4cc(OC)cc(OC)c4)CC3)cc21
EC50: 2.91 µM

Cc1ccc2c(c1)C(=O)CC1(CCC(C(C)(C)C)CC1)O2 (stereo not given)
EC50: 3.01 µM

CCOc1cccc2sc(Nc3nc4ccc(NC(C)=O)cc4s3)nc12
EC50: 4.69 µM

CCOC(=O)C(C(=O)OCC)c1cc(Br)c2noc3c2c1C(=O)c1ccccc1-3
EC50: 3.7 µM

COc1cc([N+](=O)[O-])cc(/C=N/NC(=O)c2cc(-c3ccccc3)nc3ccccc23)c1O
EC50: 3.2 µM

O=C(Nc1nnc(-c2ccccn2)o1)c1cccc(Cl)c1
EC50: 1.66 µM

COc1ccc(CNC(=O)c2c(C)oc3c2C(=O)c2ccccc2C3=O)cc1
EC50: 0.81 µM

Oc1ccccc1N=Cc1c(O)ccc2oc3c(c12)CCCC3
EC50: 5.52 µM

NCCCn1c(C(=O)c2cc(Cl)c(N)c(Cl)c2)c2ccc([N+](=O)[O-])cc2[n+]1[O-]
EC50: 4.25 µM

Oc1ccccc1C1=NN(c2ccccc2)C(c2ccccc2)C1 (stereo not given)
EC50: 2.76 µM

CC1(C)Oc2ccc3ccc(=O)oc3c2/C(=C/NNC(N)=S)C1=O
EC50: 7.51 µM

Cc1ccc(C)c(N2CCN(C(=O)CCCCCn3c(=S)[nH]c4ccc(N5CCOCC5)cc4c3=O)CC2)c1
EC50: 7.93 µM

CN1C(=O)/C(=C/c2ccccc2F)Sc2ccc(C(=O)N3CCCC3)cc21
EC50: 1.06 µM

OC(CNCC1CCCO1)Cn1c2ccc(Br)cc2c2cc(Br)ccc21 (stereo not given)
EC50: 3.47 µM

CCOc1ccc(-n2c(C)cc(/C=C3/C(=N)N4C(=NC3=O)SN=C4S(C)(=O)=O)c2C)cc1
EC50: 0.938 µM

COc1ccc(NC(=O)c2cc3cccc(OC)c3oc2=Nc2ccc(C(=O)O)cc2)cc1OC
EC50: 2.1 µM

COc1ccc(C)cc1N=Nc1ccc(O)c2ncccc12
EC50: 0.168 µM

CN(C)CCCNC(=S)NCC(c1ccc(Cl)cc1Cl)c1c[nH]c2ccccc12 (stereo not given)
EC50: 7.22 µM

Cc1cccc2nc(COc3ccc4ccccc4c3Br)cn12
EC50: 4.94 µM

O=C(c1ccc(Cl)cc1)c1cnc(Nc2ccccc2Cl)s1
EC50: 6.77 µM

CCOC(=O)c1c(N)sc(C(O)(C(F)(F)F)C(F)(F)F)c1-c1ccc(Cl)cc1
EC50: 3.17 µM

CCC(O)(CC)C(=O)N/N=C/c1cc(Br)cc(Br)c1O
EC50: 2.64 µM

Cc1ccc(NS(=O)(=O)c2ccc(Cl)c(NC(=S)NC(=O)C3CCCCC3)c2)cc1Cl
EC50: 1.13 µM

Cc1cc(C)c2ccc(N)nc2c1O
EC50: 3.33 µM

COc1cccc(/C=N/Nc2cc(N3CCOCC3)ncn2)c1O
EC50: 7.64 µM

CN(C)c1ccc(C2C=C(c3ccc(Cl)cc3OC(F)F)Nc3ncnn32)cc1 (stereo not given)
EC50: 10.8 µM

Cc1ccc(-c2cnc(N)n2C)cc1C
EC50: 4.13 µM

CC(C)(CN=C1NS(=O)(=O)c2ccccc21)CNC(=O)c1ccccc1
EC50: > 15 µM (inactive)

CCc1ccc(OCC(=O)NC(NC(=S)Nc2ccc(C)cc2C)C(Cl)(Cl)Cl)cc1 (stereo not given)
EC50: 4.44 µM

Cc1ccc(NC(=S)NC(=O)c2ccc(F)cc2)cc1S(=O)(=O)Nc1cccc(Cl)c1
EC50: 2.19 µM

O=c1ccc(N=Nc2ccccc2)ccc1O
EC50: 3.51 µM

CCc1c(C)c(C#N)c2[nH]c3ccccc3n2c1=S
EC50: 14.1 µM

Cc1ccc(C)c(CN2CCCN(Cc3cc(C)ccc3C)S2(=O)=O)c1
EC50: 2.58 µM

CCCOc1ccc(C(=O)NNC(=S)NC(=O)c2ccccc2[N+](=O)[O-])cc1
EC50: 1.8 µM

O=C(CSc1nc(Nc2ccccc2)nc(N2CCOCC2)n1)Nc1cc(Cl)ccc1O
EC50: 4.13 µM

O=C(CNC(=O)c1ccccc1Br)N/N=C\c1cc([N+](=O)[O-])cc(Br)c1O
EC50: 8.11 µM

COc1ccc(-c2csc(NC(=O)c3ccc(C(C)(C)C)cc3)c2C(=O)O)cc1
EC50: 1.21 µM

O=c1c2c(n3nnnc3n1Cc1ccccc1)-c1ccccc1CC21CCCC1
EC50: 1.67 µM

Cc1cc(/C=N/n2cnnc2)c(C)n1-c1ccc(OCc2ccc(Cl)cc2Cl)cc1
EC50: 2.1 µM

CCn1cc(CN2CCC(n3nccc3NC(=O)Cc3ccccc3)CC2)cn1
EC50: > 15 µM (inactive)

CC(C)C1OC2c3cccc4cccc(c34)C2N1c1ccccc1 (stereo not given)
EC50: 2.57 µM

COc1cc(C)ccc1OCCCOc1ccccc1Br
EC50: 5.9 µM

Cc1n[nH]c(=O)c2c(NC(=O)CSc3nnnn3-c3ccccc3)oc(C)c12
EC50: > 15 µM (inactive)

Nc1nc(Nc2ccc(Cl)cc2)nc(NCc2ccco2)c1[N+](=O)[O-]
EC50: 6.56 µM

COc1ccccc1CN1CC(C(=O)NCc2ncccc2C)CCC1=O (stereo not given)
EC50: > 15 µM (inactive)

NC1CCN(c2c(F)cc3c(=O)c(C(=O)O)cn(C4CC4)c3c2Cl)C1 (stereo not given)
EC50: 0.064 µM

COc1cccc(N2CCN(c3ncnc4c3[nH]c3ccc(F)cc34)CC2C)c1 (stereo not given)
EC50: 6.85 µM

O=C(c1ccccc1)c1cc2ccc(O)cc2oc1=O
EC50: 6.03 µM

CCCN(CCC)S(=O)(=O)c1ccc(C(=O)Nc2nnc(-c3cc(OC)cc(OC)c3)o2)cc1
EC50: 0.192 µM

CCOC(=O)N1CCN(C(=O)c2ccc3c(=O)n(CCC4=CCCCC4)c(=S)[nH]c3c2)CC1
EC50: 7.74 µM

CCOC(=O)c1cnn(-c2nc(-c3cccc(F)c3)cs2)c1C(F)(F)F
EC50: 12.3 µM

Cc1cc(C)c(NC(=O)c2oc3ccccc3c2COc2ccccc2)c(C)c1
EC50: 14.8 µM

Cc1[nH]n2c(=O)cc(C(C)(C)C)nc2c1-c1ccccc1
EC50: 2.77 µM

CCOC(=O)c1c(-c2ccc(C)cc2)csc1NC(=O)CCN1CCOCC1
EC50: > 15 µM (inactive)
